Data as given in patent US8674118B2, “Compounds and methods for the treatment or prevention of flavivirus infections” (priority 2005, dated 2014).
Where a name gives a salt, the structure may show the parent alone. Read-outs that look alike come from different tables or passages of the source.

Test system: HCV RNA replication (replicon cell lines Huh-7, 5.2 and ET)
Assay: Cell-Based Luciferase Reporter HCV RNA Replication Assay
[1] = Hepatitis C virus, Huh-7, 96 h, Huh-7, 5.2 or ET replicon cells, luciferase counts after 4 days incubation, read-out: IC50

Row | SMILES | IC50 [1] [µM] | other results
1 | CO[C@H]1CC[C@H](N(c2cc(C3=CCC(C)(C)CC3)sc2C(=O)O)C(=O)[C@H]2CC[C@H](C)CC2)CC1 [Compound 20, 5-(4,4-Dimethyl-cyclohex-1-enyl)-3-[(trans-4-methoxy-cyclohexyl)-(trans-4-methyl-cyclohexanecarbonyl)-amino]-thiophene-2-carboxylic acid] | < 5 | –
2 | CO[C@H]1CC[C@H](N(c2cc(C3CCC(C)(C)CC3)sc2C(=O)O)C(=O)[C@H]2CC[C@H](C)CC2)CC1 [Compound 21, 5-(4,4-Dimethyl-cyclohexyl)-3-[(trans-4-methoxy-cyclohexyl)-(trans-4-methyl-cyclohexanecarbonyl)-amino]-thiophene-2-carboxylic acid] | < 5 | –
3 | CCO[C@H]1CC[C@H](N(c2cc(C3=CCCCC3)sc2C(=O)O)C(=O)[C@H]2CC[C@H](C)CC2)CC1 [Compound 22, 5-Cyclohex-1-enyl-3-[(trans-4-ethoxy-cyclohexyl)-(trans-4-methyl-cyclohexanecarbonyl)-amino]-thiophene-2-carboxylic acid] | < 5 | –
4 | COC1CCC(N(C(=O)C2CCC(C)CC2)c2cc(C3=CCCCC3)sc2C(=O)O)CC1 (stereo not drawn) [Compound 23, 5-Cyclohex-1-enyl-3-[(cis-4-methoxy-cyclohexyl)-(4-trans-methyl-cyclohexanecarbonyl)-amino]-thiophene-2-carboxylic acid] | < 5 | –
5 | COCO[C@H]1CC[C@H](N(c2cc(C3=CCCCC3)sc2C(=O)O)C(=O)[C@H]2CC[C@H](C)CC2)CC1 [Compound 24, 5-Cyclohex-1-enyl-3-[(trans-4-methoxymethoxy-cyclohexyl)-(trans-4-methyl-cyclohexanecarbonyl)-amino]-thiophene-2-carboxylic acid] | < 5 | –
6 | CC1CCC(C(=O)N(c2cc(C3=CCC(=O)CC3)sc2C(=O)O)C2CCC(O)CC2)CC1 (stereo not drawn) [Compound 25, 3-[(4-trans-hydroxy-cyclohexyl)-(4-trans-methyl-cyclohexanecarbonyl)-amino]-5-(4-oxo-cyclohex-1-enyl)-thiophene-2-carboxylic acid] | 5 to 25 | –
7 | CC1CCC(C(=O)N(c2cc(C3=CC/C(=N/OCc4ccccc4)CC3)sc2C(=O)O)C2CCC(O)CC2)CC1 (stereo not drawn) [Compound 26, 5-{4-benzyloxyimino-cyclohex-1-enyl}-3-[(4-trans-hydroxy-cyclohexyl)-(4-trans-methyl-cyclohexanecarbonyl)-amino]-thiophene-2-carboxylic acid] | < 5 | –
8 | CCO/N=C1/CC=C(c2cc(N(C(=O)C3CCC(C)CC3)C3CCC(O)CC3)c(C(=O)O)s2)CC1 (stereo not drawn) [Compound 27, 5-{4-ethoxyimino-cyclohex-1-enyl}-3-[(4-trans-hydroxy-cyclohexyl)-(4-trans-methyl-cyclohexanecarbonyl)-amino]-thiophene-2-carboxylic acid] | < 5 | –
9 | CC1CCC(C(=O)N(c2cc(C3=CC4CCC3C4)sc2C(=O)O)C2CCC(O)CC2)CC1 (stereo not drawn) [Compound 28, 5-bicyclo[2.2.1]hept-2-en-2-yl-3-[(4-trans-hydroxy-cyclohexyl)-(4-trans-methyl-cyclohexanecarbonyl)-amino]-thiophene-2-carboxylic acid] | – | IC50 (Hepatitis C virus, Huh-7, 96 h): > 25 µM
10 | C[C@H]1CC[C@H](C(=O)N(c2cc(C3=CCCCC3)sc2C(=O)O)C2CCOCC2)CC1 [Compound 29, 5-cyclohex-1-enyl-3-[(trans-4-methyl-cyclohexanecarbonyl)-(tetrahydro-pyran-4-yl)-amino]-thiophene-2-carboxylic acid] | < 5 | –
11 | C[C@H]1CC[C@H](C(=O)N(c2cc(C3=CCCCC3)sc2C(=O)O)C2COCOC2)CC1 [Compound 30, 5-cyclohex-1-enyl-3-[[1,3]dioxan-5-yl-(trans-4-methylcyclohexanecarbonyl)-amino]-thiophene-2-carboxylic acid] | < 5 | –
12 | CC(C)N(C(=O)c1ccc(Cl)cc1Cl)c1cc(C2=CCCCC2)sc1C(=O)O [Compound 31, 5-cyclohex-1-enyl-3-[(2,4-dichloro-benzoyl)-isopropyl-amino]-thiophene-2-carboxylic acid] | 5 to 25 | –
13 | CC1CCC(C(=O)N(c2cc(C3=CCC(O)CC3)sc2C(=O)O)C2CCC(O)CC2)CC1 (stereo not drawn) [Compound 34, RS-5-(4-hydroxy-cyclohex-1-enyl)-3-[(4-trans-hydroxy-cyclohexyl)-(4-trans-methyl-cyclohexanecarbonyl)-amino]-thiophene-2-carboxylic acid] | < 5 | –
14 | CC1CCC(C(=O)N(c2cc(C3=CCC(C)(C)CC3)sc2C(=O)O)C2CCC(O)CC2)CC1 (stereo not drawn) [Compound 35, 5-(4,4-dimethyl-cyclohex-1-enyl)-3-[(4-trans-4-hydroxy-cyclohexyl)-(trans-4-methyl-cyclohexanecarbonyl)-amino]-thiophene-2-carboxylic acid] | < 5 | –
15 | CN(c1cc(C2=CCCCC2)sc1C(=O)O)C(=O)[C@H]1CC[C@H](C)CC1 [Compound 37, 5-cyclohex-1-enyl-3-[methyl-(trans-4-methyl-cyclohexanecarbonyl)-amino]-thiophene-2-carboxylic acid] | 5 to 25 | –
16 | CC1(C)CCC(N(c2cc(C3=CCCCC3)sc2C(=O)O)C(=O)[C@H]2CC[C@H](C)CC2)CC1 [Compound 38, 5-cyclohex-1-enyl-3-[(4,4-dimethyl-cyclohexyl)-(trans-4-methyl-cyclohexanecarbonyl)-amino]-thiophene-2-carboxylic acid] | < 5 | –
17 | C[C@H]1CC[C@H](C(=O)N(c2cc(C3=CCCCC3)sc2C(=O)O)[C@H]2CC[C@@H](n3cncn3)CC2)CC1 [Compound 41, 5-cyclohex-1-enyl-3-[(trans-4-methyl-cyclohexanecarbonyl)-(cis 4-[1,2,4]triazol-1-yl-cyclohexyl)-amino]-thiophene-2-carboxylic acid] | < 5 | –
18 | C[C@H]1CC[C@H](C(=O)N(c2cc(C3=CCCCC3)sc2C(=O)O)C2CCSCC2)CC1 [Compound 42, 5-cyclohex-1-enyl-3-[(trans-4-methyl-cyclohexanecarbonyl)-(tetrahydrothiopyran-4-yl)-amino]-thiophene-2-carboxylic acid] | < 5 | –
19 | CC1CCC(C(=O)N(c2cc(C3=CCCCC3)sc2C(=O)O)C2CCC(C(C)(C)C)CC2)CC1 (stereo not drawn) [Compound 44, 3-[(4-trans-tert-butyl-cyclohexyl)-(4-trans-methyl-cyclohexanecarbonyl)-amino]-5-cyclohex-1-enyl-thiophene-2-carboxylic acid] | 5 to 25 | –
20 | CC1CCC(C(=O)N(c2cc(C3=CCCCC3)sc2C(=O)O)C2CCC(C(C)(C)C)CC2)CC1 (stereo not drawn) [Compound 45, 3-[(4-cis-tert-butyl-cyclohexyl)-(4-trans-methyl-cyclohexanecarbonyl)-amino]-5-cyclohex-1-enyl-thiophene-2-carboxylic acid] | – | IC50 (Huh-7, 5.2 or ET replicon cells, luciferase counts after 4 days incubation, read-out: IC50): < 5 µM
21 | CC1CCC(C(=O)N(c2cc(C3=CCCCCC3)sc2C(=O)O)C2CCCCC2)CC1 (stereo not drawn) [Compound 46, 5-cyclohept-1-enyl-3-[cyclohexyl-(4-trans-methyl-cyclohexanecarbonyl)-amino]-thiophene-2-carboxylic acid] | < 5 | –
22 | CC1CC=C(c2cc(N(C(=O)C3CCC(C)CC3)C3CCCCC3)c(C(=O)O)s2)CC1 (stereo not drawn) [Compound 47, RS-3-[cyclohexyl-(4-trans-methyl-cyclohexanecarbonyl)-amino]-5-(4-methyl-cyclohex-1-enyl)-thiophene-2-carboxylic acid] | < 5 | –
23 | C[C@H]1CC[C@H](C(=O)N(c2cc(C3=CCCCC3)sc2C(=O)O)[C@H]2CC[C@H](n3cncn3)CC2)CC1 [Compound 48, 5-cyclohex-1-enyl-3-[(trans-4-methylcyclohexanecarbonyl)-(trans-4-[1,2,4]triazol-1-yl-cyclohexyl)-amino]-thiophene-2-carboxylic acid; hydrochloride] | < 5 | –
24 | C[C@H]1CC[C@H](C(=O)N(c2cc(C3=CCCCC3)sc2C(=O)O)[C@H]2CC[C@@H](C#N)CC2)CC1 [Compound 49, 3-[(cis-4-cyanocyclohexyl)-(trans-4-methylcyclohexanecarbonyl)-amino]-5-cyclohex-1-enyl-thiophene-2-carboxylic acid] | < 5 | –
25 | C[C@H]1CC[C@H](C(=O)N(c2cc(C3=CCCCC3)sc2C(=O)O)[C@H]2CC[C@H](C#N)CC2)CC1 [Compound 50, 3-[(trans-4-cyanocyclohexyl)-(trans-4-methyl-cyclohexanecarbonyl)-amino]-5-cyclohex-1-enyl-thiophene-2-carboxylic acid] | < 5 | –
26 | C[C@H]1CC[C@H](C(=O)N(c2cc(C3=CCCCC3)sc2C(=O)O)C2CC2)CC1 [Compound 51, 5-cyclohex-1-enyl-3-[cyclopropyl-(trans-4-methyl-cyclohexanecarbonyl)-amino]-thiophene-2-carboxylic acid] | 5 to 25 | –
27 | C[C@H]1CC[C@H](C(=O)N(c2cc(C3=CCCCC3)sc2C(=O)O)[C@H]2CC[C@H](C)CC2)CC1 [Compound 52, 5-cyclohex-1-enyl-3-[(trans-4-methyl-cyclohexanecarbonyl)-(trans-4-methyl-cyclohexyl)-amino]-thiophene-2-carboxylic acid] | < 5 | –
28 | C[C@H]1CC[C@H](C(=O)N(c2cc(C3=CCCCC3)sc2C(=O)O)[C@H]2CC[C@@H](C)CC2)CC1 [Compound 53, 5-cyclohex-1-enyl-3-[(trans-4-methyl-cyclohexanecarbonyl)-(cis-4-methyl-cyclohexyl)-amino]-thiophene-2-carboxylic acid] | < 5 | –
29 | C[C@H]1CC[C@H](C(=O)N(c2cc(C3=CCCCC3)sc2C(=O)O)[C@H]2CC[C@@H](F)CC2)CC1 [Compound 57, 5-cyclohex-1-enyl-3-[(cis-4-fluoro-cyclohexyl)-(trans-4-methyl-cyclohexanecarbonyl)-amino]-thiophene-2-carboxylic acid] | < 5 | –
30 | CC1=CCCCC1c1cc(N(C(=O)C2CCC(C)CC2)C2CCC(=O)CC2)c(C(=O)O)s1 (stereo not drawn) [Compound 58, RS-3-[(4-trans-methyl-cyclohexanecarbonyl)-(4-oxo-cyclohexyl)-amino]-5-(2-methyl-cyclohex-2-enyl)-thiophene-2-carboxylic acid] | 5 to 25 | –
